Assay: Pharmacokinetics of vancomycin after i.v. or pulmonary
Conditions: rabbits, 1 mg/kg i.v. bolus, plasma, LC/MS, non-compartmental, average ± S.D., n = 3; SD

CN[C@H](CC(C)C)C(=O)N[C@H]1C(=O)N[C@@H](CC(N)=O)C(=O)N[C@H]2C(=O)N[C@H]3C(=O)N[C@H](C(=O)N[C@H](C(=O)O)c4cc(O)cc(O)c4-c4cc3ccc4O)[C@H](O)c3ccc(c(Cl)c3)Oc3cc2cc(c3O[C@@H]2O[C@H](CO)[C@@H](O)[C@H](O)[C@H]2O[C@H]2C[C@](C)(N)[C@H](O)[C@H](C)O2)Oc2ccc(cc2Cl)[C@H]1O [vancomycin]
AUC(0-∞): 12135.34 ± 616.52 ng·h/mL | AUClast: 12069.85 ± 638.15 ng·h/mL | C0: 5347 ± 4927 ng/mL | Clearance: 1.376 ± 0.0708 mL/min/kg | Cmax: 3330 ± 1119 ng/mL | Half-Life: 3.38 ± 0.43 h | Tmax: 0.67 ± 0.29 h | Volume of Dist.: 0.40389 ± 0.06483 L/kg

From PMC4943339 (Molecular pharmaceutics, 2015)
